Laboratory results from patent publication US3976788A (priority 1974, dated 1976).
“Also recorded” adds a separate entry of the source. Where two headings read alike, the source gives them in different places.

Legend:
male CF-1 mice [1] = test: Anesthesia in mice (median anesthetic concentration AC50); assay type: in vivo, mouse (male CF-1); conditions: inhalation, 5 min
Experimental: (§1) If anesthesia occurred, the median anesthetic concentration (AC50) was established. Another thirty mice were treated similarly to establish the median lethal concentration (LC50). The concentrations were calculated from the volume used and density of the test compound and the volume of air (6.3 l) in the test jar using the ideal gas law. The results for the convulsant ethers are given in Table 1; Tables 2 and 3 contain the results for related nonconvulsant ethers, most of which are good anesthetic agents.

male CF-1 mice [2] = test: Lethality in mice (median lethal concentration LC50); assay type: in vivo, mouse (male CF-1); conditions: for MOUSE LC50: inhalation, 5 min
Experimental: as §1

dogs = test: Convulsions / other effects in dogs; assay type: in vivo, dog
Stability to heat = assay type: physicochemical
Experimental: which can be treated with about a 0.4 molar equivalent of bromine trifluoride at -5° C to give the ether V (See Examples 8 and 9).

male CF-1 mice [3] = test: Convulsions in mice, 5 min inhalation exposure to test compound in air; assay type: in vivo, mouse (male CF-1); conditions: for ADDITIONAL REMARKS: type of convulsions and other effects: Table 1; for MOUSE CONVULSANT CONC., VOL. %: inhalation, 5 min
Experimental: as §1

male CF-1 mice [4] = conditions: footnote 5 (Krantz et al.); cited from earlier work
male CF-1 mice [5] = conditions: footnote 5 (Krantz et al.); cited from earlier work; remark: listed apart in the source
[6] = footnote 3 (Aldrich and Sheppard); cited from earlier work
[7] = system: flurothyl induced convulsions; conditions: footnote 5 (Krantz et al.); cited from earlier work

| Structure (SMILES) | MOUSE AC50 (median anesthetic concentration) (male CF-1 mice [1]) | MOUSE LC50 (male CF-1 mice [2]) | also measured |
| --- | --- | --- | --- |
| FCOC(C(F)F)C(F)(F)F (stereo not shown) [XVI] | 0.84 VOL. % | 5.1 VOL. % | – |
| FCOC(C(F)(F)F)C(F)(F)F [XV] | 1.4 VOL. % | 8.5 VOL. % | ADDITIONAL REMARKS: convulsions in dogs (dogs): NON[…] DOGS |
| FC(F)OC(C(F)(F)F)C(F)(F)F [X] | 2.5 VOL. % | 12 VOL. % | ADDITIONAL REMARKS: convulsions in dogs (dogs): NON[…] DOGS |
| FC(F)OC(F)(C(F)F)C(F)F [IV, Difluromethyl 1,1,2,3,3-pentafluoro-2-propyl ether] | – | 5.3 VOL. % | stability to heat compared with V (Stability to heat): more stable than V to heat; ADDITIONAL REMARKS: convulsions in dogs (dogs): OPI[…]. IN DOGS; ADDITIONAL REMARKS: type of convulsions and other effects (male CF-1 mice [3]): C[…] SEDATION; MOUSE CONVULSANT CONC., VOL. % (male CF-1 mice [3]): 1.2 VOL. % |
| COC(C(F)F)C(F)(F)F (stereo not shown) [XXII] | 1.5 VOL. % | 6.9 VOL. % | – |
| FC(F)(F)COCC(F)(F)F [VII, fluorothyl] | – | – | MOUSE LC50 (male CF-1 mice [4]): < 0.50 VOL. %; MOUSE CONVULSANT CONC., VOL. % (male CF-1 mice [5]): ≤ 0.25 VOL. %; ADDITIONAL REMARKS: type of convulsions and other effects (male CF-1 mice [3]): CLONIC AND TONIC CONVULSIONS; ADDITIONAL REMARKS: time of convulsions (male CF-1 mice [3]; clonic and tonic convulsions): 30 s |
| FCOC(F)(C(F)F)C(F)(F)F (stereo not shown) [XIV] | 2.5 VOL. % | 9.0 VOL. % | ADDITIONAL REMARKS: convulsions in dogs (dogs): NON[…] DOGS |
| COC(F)(F)C(F)C(F)(F)F (stereo not shown) [XVIII, methyl 1,1,2,3,3,3-hexafluoropropyl ether] | 3.9 VOL. % | > 8.0 VOL. % | – |
| FC(F)OC(C(F)F)C(F)F [XII] | 0.64 VOL. % | 3.8 VOL. % | – |
| FC(F)C(F)(F)COC(F)(F)F [VI] | – | ≤ 0.5 VOL. % | ADDITIONAL REMARKS: convulsions and death [6]: VIOLENT C[…] DEATH; ADDITIONAL REMARKS: time of convulsions and death [6]: 30 to 120 s; MOUSE CONVULSANT CONC., VOL. % (male CF-1 mice [3]): ≤ 0.5 VOL. % |
| FCOC(F)(F)C(F)C(F)(F)F (stereo not shown) [XIII] | 2.1 VOL. % | 6.4 VOL. % | – |
| COCC(F)(F)C(F)(F)F [XIX, methyl 2,2,3,3,3-pentafluoropropyl ether] | 11 VOL. % | 16 VOL. % | – |
| COCC(F)(F)C(F)F [XX] | 2.5 VOL. % | 7.0 VOL. % | – |
| COC(F)(F)C(F)(F)C(F)(F)F [XVII] | – | 50 VOL. % | ADDITIONAL REMARKS: cause of death (male CF-1 mice [2]; mouse): DEATH DUE TO ANOXIA |
| FC(F)OC(C(F)F)C(F)(F)F (stereo not shown) [XI] | 0.84 VOL. % | 4.9 VOL. % | – |
| COC(C(F)(F)F)C(F)(F)F [XXI] | 2.2 VOL. % | 9.0 VOL. % | ADDITIONAL REMARKS: convulsions in dogs (dogs): NON[…] DOGS; antagonist to flurothyl (induced convulsions) [7]: ANTAGONIST |
| FC(F)OC(F)C(F)(F)C(F)(F)F (stereo not shown) [IX] | 4.3 VOL. % | > 9.9 VOL. % | – |
| COC(C(F)F)C(F)F [XXIII] | 1.4 VOL. % | > 7.8 VOL. % | – |
| FC(F)OC(F)(F)C(F)C(F)(F)F (stereo not shown) [III, Difluoromethyl 1,1,2,3,3,3-hexafluoropropyl ether] | – | > 12 VOL. % | stability to heat compared with V (Stability to heat): more stable than V to heat; MOUSE CONVULSANT CONC., VOL. % (male CF-1 mice [3]): 2.0 VOL. % |
| FC(F)OCC(F)(F)C(F)(F)F [II, Difluoromethyl 2,2,3,3,3-pentafluoropropyl ether] | – | > 4.2 VOL. % | stability to heat compared with V (Stability to heat): more stable than V to heat; ADDITIONAL REMARKS: type of convulsions and other effects (male CF-1 mice [3]): CLONIC AND TONIC CONVULSIONS; also recorded: CATALEPSY; MOUSE CONVULSANT CONC., VOL. % (male CF-1 mice [3]): 1.4 VOL. % |
| FC(F)OCC(F)(F)C(F)F [I, Difluoromethyl 2,2,3,3-tetrafluoropropyl ether] | – | 3.2 VOL. % | stability to heat compared with V (Stability to heat): more stable than V to heat; ADDITIONAL REMARKS: type of convulsions and other effects (male CF-1 mice [3]): CLONIC CONVULSIONS; MOUSE CONVULSANT CONC., VOL. % (male CF-1 mice [3]): 1.0 VOL. % |
| FCOCC(F)(F)C(F)(F)F [V, Fluoromethyl 2,2,3,3,3-pentafluoropropyl ether] | – | > 3.0 VOL. % | stability to heat in the presence of an alkaline material (Stability to heat; e.g., soda lime): stable to 70 °C; stability to heat (Stability to heat; upon distillation at 760 torr): unstable to heat and decomposed with the formation of hydrogen fluoride; ADDITIONAL REMARKS: type of convulsions and other effects (male CF-1 mice [3]): METRAZOLE-LIKE CONVULSIONS; MOUSE CONVULSANT CONC., VOL. % (male CF-1 mice [3]): 1.5 VOL. % |
